PubChem BioAssay (NCI)
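These data come from cells grown in 96-well plates and exposed to compound for 48 hours at five concentrations. Definition used: TGI = concentration required for complete inhibition of growth.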

What was measured:
Assay in all cases: NCI tumour cell line growth inhibition, 48 h
CCRF-CEM leukemia = test system: CCRF-CEM leukemia
HCT-15 colon = test system: HCT-15 colon
HOP-62 NSCLC = test system: HOP-62 NSCLC
K-562 leukemia = test system: K-562 leukemia
OVCAR-4 ovarian = test system: OVCAR-4 ovarian
OVCAR-8 ovarian = test system: OVCAR-8 ovarian
SN12C renal = test system: SN12C renal
U251 CNS = test system: U251 CNS
UACC-257 melanoma = test system: UACC-257 melanoma
UO-31 renal = test system: UO-31 renal
SK-OV-3 ovarian = test system: SK-OV-3 ovarian

Structure (SMILES) | TGI (CCRF-CEM leukemia) [µM] | TGI (HCT-15 colon) [µM] | TGI (HOP-62 NSCLC) [µM] | TGI (K-562 leukemia) [µM] | TGI (OVCAR-4 ovarian) [µM] | TGI (OVCAR-8 ovarian) [µM] | TGI (SN12C renal) [µM] | TGI (U251 CNS) [µM] | TGI (UACC-257 melanoma) [µM] | TGI (UO-31 renal) [µM] | TGI (SK-OV-3 ovarian) [µM]
Nc1ncnc2c1ncn2C=C=CCO | > 100 | > 100 | > 100 | > 100 | > 100 | > 100 | > 100 | > 100 | > 100 | > 100 | 
CCOc1ccc(NC(=O)C(=O)CC(=O)c2sc(NNC(C)=O)nc2C)cc1 | > 100 | > 100 | > 100 | > 100 | > 100 | > 100 | > 100 | > 100 | > 100 | > 100 | > 100
COc1cc2c(c(O)c1OC)-c1c(cc(OC)c(OC)c1OC)CC(C)C(C)C2 (stereo not given) | 62.1 | > 100 | > 100 | > 100 | > 100 | > 100 | > 100 | > 100 | > 100 | > 100 | > 100
CC(C)=CCC/C(C)=C/CC/C(C)=C/CC/C(C)=C/C=C/C=C(\C)CC/C=C(\C)CC/C=C(\C)CCC=C(C)C | 59.8 | > 100 | > 100 | > 31.6 | > 100 | > 88.2 | > 55.3 | > 100 | > 100 | 54.8 | > 100
CCOC(=O)C1=C(C)OC2(O)C=CC(O)=C3C(=O)N(c4ccccc4)C(=O)C312 (stereo not given) |  | > 100 | > 100 | > 100 | > 100 | > 100 | > 100 | > 100 | 99.4 | 65.4 | > 100
CN1CCOC(c2ccc(Cl)cc2)O1 (stereo not given) | > 100 | > 100 | > 100 | > 100 | > 100 | > 100 | > 100 | > 100 | > 100 | > 100 | > 100
C=C1c2ccccc2C(=O)c2c1c1c(C(=O)OC)c(O)ccc1n2Cc1ccccc1 | 0.74 | 1.2 | 1.53 | 1.55 | 1.77 | 0.952 | 0.939 | 0.763 | 5.98 | 1.74 | 1.35
